In ChEMBL document CHEMBL5634077, “Recent advances in 1,2,3- and 1,2,4-triazole hybrids as antimicrobials and their SAR: A critical review” (2023):
≈ marks a conversion by molar mass, not a printed value.

How the values were obtained:
Assay type in all cases: functional
[1] = system: Staphylococcus aureus; assay: Antibacterial activity against methicillin resistant Staphylococcus aureus incubated for 20 hrs by broth microdilution method
[2] = system: Staphylococcus aureus; assay: Antibacterial activity against Staphylococcus aureus assessed as diameter of inhibition zone
[3] = system: Pseudomonas aeruginosa; assay: Antibacterial activity against Pseudomonas aeruginosa MTCC 1034 assessed as reduction in bacterial growth
[4] = system: Bacillus subtilis; assay: Antibacterial activity against Bacillus subtilis MTCC 441 assessed as reduction in bacterial growth
[5] = system: Staphylococcus aureus; assay: Antibacterial activity against Staphylococcus aureus assessed as diameter of inhibition zone incubated for 24 hrs by well diffusion assay
[6] = system: Bacillus subtilis; assay: Antibacterial activity against Bacillus subtilis RCMB 010069 assessed as diameter of inhibition zone incubated for 24 hrs by well diffusion assay
[7] = system: Proteus vulgaris; assay: Antibacterial activity against Proteus vulgaris RCMB 004 assessed as diameter of inhibition zone incubated for 24 hrs by well diffusion assay
[8] = system: Escherichia coli; assay: Antibacterial activity against Escherichia coli RCMB 010052 assessed as diameter of inhibition zone incubated for 24 hrs by well diffusion assay
[9] = system: Aspergillus flavus; assay: Antifungal activity against Aspergillus flavus assessed as diameter of inhibition zone incubated for 24 hrs by well diffusion assay
[10] = system: Geotrichum candidum; assay: Antifungal activity against Geotrichum candidum RCMB 052006 assessed as diameter of inhibition zone incubated for 24 hrs by well diffusion assay
[11] = system: Aspergillus niger; assay: Antifungal activity against Aspergillus niger assessed as fungal growth inhibition
[12] = system: Candida albicans; assay: Antifungal activity against Candida albicans Y0109 assessed as reduction in fungal growth incubated for 24 hrs by NCCLS based assay
[13] = system: Candida albicans; assay: Antifungal activity against Candida albicans SC5314 assessed as reduction in fungal growth incubated for 24 hrs by NCCLS based assay
[14] = system: Nakaseomyces glabratus; assay: Antifungal activity against Candida glabrata 537 assessed as reduction in fungal growth incubated for 72 hrs by NCCLS based assay
[15] = system: Cryptococcus neoformans; assay: Antifungal activity against Cryptococcus neoformans 32609 assessed as reduction in fungal growth incubated for 72 hrs by NCCLS based assay
[16] = system: Aspergillus fumigatus; assay: Antifungal activity against Aspergillus fumigatus 7544 assessed as reduction in fungal growth incubated for 5 to 7 days by NCCLS based assay; conditions: time 5-7 day
[17] = system: Trichophyton rubrum; assay: Antifungal activity against Trichophyton rubrum assessed as reduction in fungal growth incubated for 5 to 7 days by NCCLS based assay; conditions: time 5-7 day
[18] = system: Nannizzia gypsea; assay: Antifungal activity against Microsporum gypseum assessed as reduction in fungal growth incubated for 5 to 7 days by NCCLS based assay; conditions: time 5-7 day
[19] = system: Candida albicans; assay: Antifungal activity against Candida albicans ATCC 90028 assessed as growth inhibition incubated for 24 hrs
[20] = system: Candida albicans; assay: Antifungal activity against Candida albicans assessed as fungal growth inhibition by CLSI based method
[21] = system: Cryptococcus neoformans; assay: Antifungal activity against Cryptococcus neoformans assessed as fungal growth inhibition by CLSI based method

COc1cc(/C=C/c2ccc(OCc3cn(Cc4ccc(C(=O)O)cc4)nn3)cc2)cc(OC)c1 was tested, and the MIC [1] was 312 µg/mL (≈ 663 µM).

For CCCCC(=O)c1cc(C(=O)CCCC)cc(-n2cc(C(C)N3C(=O)C(=O)c4ccccc43)nn2)c1 (stereo not given), the “diameter of the inhibition zone (DIZ)” value [2] was 6 mm.

Work on C=CCCC1CC(=O)N1Cc1cn(-c2ccc(Cl)cc2)nn1 (stereo not given) yielded an MIC [3] of 1.25 µg/mL (≈ 3.95 µM) and an MIC [4] of 1.25 µg/mL (≈ 3.95 µM).

In the case of Cc1c(-c2cc(-c3c[nH]c4ccccc34)nc(NN)n2)nnn1-c1ccc(-n2nnc(-c3cc(-c4c[nH]c5ccccc45)nc(NN)n3)c2C)cc1, the “diameter of the inhibition zone (DIZ)” value [5] is reported as 20.9 mm, the “diameter of the inhibition zone (DIZ)” value [6] is reported as 41.3 mm and the “diameter of the inhibition zone (DIZ)” value [7] is reported as 26.9 mm. The “diameter of the inhibition zone (DIZ)” value [8] was 33.9 mm, the “diameter of the inhibition zone (DIZ)” value [9] was 21.3 mm and the “diameter of the inhibition zone (DIZ)” value [10] was 24.4 mm.

CCCCCCCCCCCCCCCc1nnc(S)n1/N=C\c1ccc([N+](=O)[O-])cc1 gave an MIC [11] of 27.1 µg/mL (≈ 59 µM).

Cc1ccc(-c2cc(CO[C@H](C)[C@](O)(Cn3cncn3)c3ccc(F)cc3F)on2)cc1 showed an MIC80 [12] of 0.125 µg/mL (≈ 0.284 µM), an MIC80 [13] of 0.25 µg/mL (≈ 0.568 µM) and an MIC80 [14] of 0.5 µg/mL (≈ 1.14 µM). For the same compound, the MIC80 [15] was 2 µg/mL (≈ 4.54 µM), the MIC80 [16] was 8 µg/mL (≈ 18.2 µM) and the MIC80 [17] was 4 µg/mL (≈ 9.08 µM). For the same compound, the MIC80 [18] was 2 µg/mL (≈ 4.54 µM).

COc1ccc(-c2cc(CO[C@H](C)[C@](O)(Cn3cncn3)c3ccc(F)cc3F)on2)cc1 gave an MIC80 [12] of 0.125 µg/mL (≈ 0.274 µM), an MIC80 [13] of 0.5 µg/mL (≈ 1.1 µM) and an MIC80 [14] of 0.5 µg/mL (≈ 1.1 µM). The MIC80 [15] was 1 µg/mL (≈ 2.19 µM), the MIC80 [16] was 4 µg/mL (≈ 8.76 µM) and the MIC80 [17] was 1 µg/mL (≈ 2.19 µM). For the same compound, the MIC80 [18] was 1 µg/mL (≈ 2.19 µM).

For Cc1c(C(=O)/C=C/c2ccncc2)nnn1-c1ccc(-n2nnc(C(=O)/C=C/c3ccncc3)c2C)cc1, the “diameter of the inhibition zone (DIZ)” value [5] was 19.2 mm, the “diameter of the inhibition zone (DIZ)” value [6] was 28.2 mm and the “diameter of the inhibition zone (DIZ)” value [7] was 17.3 mm. For the same compound, the “diameter of the inhibition zone (DIZ)” value [8] was 26.3 mm, the “diameter of the inhibition zone (DIZ)” value [9] was 18.43 mm and the “diameter of the inhibition zone (DIZ)” value [10] was 21.3 mm.

With C[C@@H](OCc1cc(-c2cccc(F)c2F)no1)[C@](O)(Cn1cncn1)c1ccc(F)cc1F the MIC80 [12] was 0.25 µg/mL (≈ 0.541 µM), the MIC80 [13] was 0.5 µg/mL (≈ 1.08 µM) and the MIC80 [14] was 0.5 µg/mL (≈ 1.08 µM). It also gave an MIC80 [15] of 1 µg/mL (≈ 2.16 µM), an MIC80 [16] of 8 µg/mL (≈ 17.3 µM) and an MIC80 [17] of 2 µg/mL (≈ 4.33 µM). The MIC80 [18] was 1 µg/mL (≈ 2.16 µM).

With Cc1c(C(=O)/C=C/c2cccnc2)nnn1-c1ccc(-n2nnc(C(=O)/C=C/c3cccnc3)c2C)cc1 the “diameter of the inhibition zone (DIZ)” value [5] was 17.3 mm, the “diameter of the inhibition zone (DIZ)” value [6] was 29.3 mm and the “diameter of the inhibition zone (DIZ)” value [7] was 17.8 mm. For the same compound, the “diameter of the inhibition zone (DIZ)” value [8] was 23.7 mm, the “diameter of the inhibition zone (DIZ)” value [9] was 18.03 mm and the “diameter of the inhibition zone (DIZ)” value [10] was 19.3 mm.

CCCCNC(=O)c1nnn(-c2ccc(Br)cc2)c1C was tested, and the “growth inhibition (GI)” value [19] was 63.7%.

For CCOc1cccc(-n2cc(C(C)N3C(=O)C(=O)c4ccccc43)nn2)c1 (stereo not given), the “diameter of the inhibition zone (DIZ)” value [2] was 10 mm.

Compound O=C(c1ccc(Cl)cc1)C(C(c1ccccc1)c1ccccc1)n1cncn1 (stereo not given) has an MIC [20] of 0.5 µg/mL (≈ 1.29 µM) and an MIC [21] of 0.5 µg/mL (≈ 1.29 µM).

For Cc1c(C(=O)/C=C/c2ccccn2)nnn1-c1ccc(-n2nnc(C(=O)/C=C/c3ccccn3)c2C)cc1, the “diameter of the inhibition zone (DIZ)” value [5] was 22.02 mm, the “diameter of the inhibition zone (DIZ)” value [6] was 32.2 mm and the “diameter of the inhibition zone (DIZ)” value [7] was 24.37 mm. For the same compound, the “diameter of the inhibition zone (DIZ)” value [8] was 31.3 mm, the “diameter of the inhibition zone (DIZ)” value [9] was 22 mm and the “diameter of the inhibition zone (DIZ)” value [10] was 24 mm.

For Cc1c(C(=O)/C=C/c2c[nH]c3ccccc23)nnn1-c1ccc(-n2nnc(C(=O)/C=C/c3c[nH]c4ccccc34)c2C)cc1, the “diameter of the inhibition zone (DIZ)” value [5] was 12 mm, the “diameter of the inhibition zone (DIZ)” value [6] was 34.2 mm and the “diameter of the inhibition zone (DIZ)” value [7] was 15.4 mm. The “diameter of the inhibition zone (DIZ)” value [8] was 25 mm, the “diameter of the inhibition zone (DIZ)” value [9] was 19.2 mm and the “diameter of the inhibition zone (DIZ)” value [10] was 17.2 mm.

With Cc1c(-c2cc(-c3c[nH]c4ccccc34)[nH]n2)nnn1-c1ccc(-n2nnc(-c3cc(-c4c[nH]c5ccccc45)[nH]n3)c2C)cc1 the “diameter of the inhibition zone (DIZ)” value [5] was 19.3 mm, the “diameter of the inhibition zone (DIZ)” value [6] was 33.5 mm and the “diameter of the inhibition zone (DIZ)” value [7] was 19.2 mm. For the same compound, the “diameter of the inhibition zone (DIZ)” value [8] was 28.4 mm, the “diameter of the inhibition zone (DIZ)” value [9] was 19.5 mm and the “diameter of the inhibition zone (DIZ)” value [10] was 23.9 mm.

O=C(c1ccc(Br)cc1)C(Cc1ccccc1)n1cncn1 (stereo not given) gave an MIC [20] of 0.5 µg/mL (≈ 1.4 µM) and an MIC [21] of 0.5 µg/mL (≈ 1.4 µM).

O=C(c1ccc(Cl)cc1)C(Cc1ccccc1)n1cncn1 (stereo not given) was tested, and the MIC [20] was 0.5 µg/mL (≈ 1.6 µM) and the MIC [21] was 0.5 µg/mL (≈ 1.6 µM).

In the case of COCCOCCOCCOCCOC(=O)c1cc(C(=O)OCCOCCOCCOC)cc(-n2cc(CN3C(=O)C(=O)c4ccccc43)nn2)c1, the “diameter of the inhibition zone (DIZ)” value [2] is reported as 12 mm.

In the case of C=CCCC1CC(=O)N1Cc1cn(-c2cccc(Cl)c2)nn1 (stereo not given), the MIC [3] is reported as 1.25 µg/mL (≈ 3.95 µM) and the MIC [4] is reported as 1.25 µg/mL (≈ 3.95 µM).

In the case of C[C@@H](c1nc(-c2ccc(C#N)cc2)cs1)[C@](O)(Cn1cncn1)c1ccc(F)cc1F [RAVUCONAZOLE], the MIC80 [12] is reported as 0.062 µg/mL (≈ 0.142 µM), the MIC80 [13] is reported as 0.25 µg/mL (≈ 0.571 µM) and the MIC80 [14] is reported as 0.125 µg/mL (≈ 0.286 µM). For the same compound, the MIC80 [15] was 0.125 µg/mL (≈ 0.286 µM), the MIC80 [16] was 2 µg/mL (≈ 4.57 µM) and the MIC80 [17] was 0.125 µg/mL (≈ 0.286 µM). It also gave an MIC80 [18] of 1 µg/mL (≈ 2.29 µM).
